What was measured:
Format in all cases: biochemical
[1] = target: Abl (Homo sapiens, UniProt P00519); test: Z′-LYTE kinase inhibition assay, Abl; details: for % inhibition: average of 2 runs
From the text: (§1) All samples were sent out to Life Technologies to obtain kinase inhibition data. A brief description of the assays and analyses are included below.
(§2) Assay Theory (SelectScreen® Kinase Profiling Services (Life Technologies, Madison, Wis. USA). The Z′-LYTE® biochemical assay employs a fluorescence-based, coupled-enzyme format and is based on the differential sensitivity of phosphorylated and non-phosphorylated peptides to proteolytic cleavage. The peptide substrate is labeled with two fluorophores one at each end—that make up a FRET pair.
(§3) In the primary reaction, the kinase transfers the gamma-phosphate of ATP to a single tyrosine, serine or threonine residue in a synthetic FRET-peptide. In the secondary reaction, a site-specific protease recognizes and cleaves non-phosphorylated FRET-peptides.
(§4) Phosphorylation of FRET-peptides suppresses cleavage by the Development Reagent. Cleavage disrupts FRET between the donor (i.e., coumarin) and acceptor (i.e., fluorescein) fluorophores on the FRET-peptide, whereas uncleaved, phosphorylated FRET-peptides maintain FRET. A ratiometric method, which calculates the ratio (the Emission Ratio) of donor emission to acceptor emission after excitation of the donor fluorophore at 400 nm, is used to quantitate reaction progress, as shown in the equation below: […]
(§5) A significant benefit of this ratiometric method for quantitating reaction progress is the elimination of well-to-well variations in FRET-peptide concentration and signal intensities. As a result, the assay yields very high Z′-factor values (>0.7) at a low percent phosphorylation. Both cleaved and uncleaved FRET-peptides contribute to the fluorescence signals and therefore to the Emission Ratio. The extent of phosphorylation of the FRET-peptide can be calculated from the Emission Ratio. The Emission Ratio will remain low if the FRET-peptide is phosphorylated (i.e., no kinase inhibition) and will he high if the FRET-peptide is non-phosphorylated (i.e., kinase inhibition).

[2] = target: Alk (Homo sapiens, UniProt Q9UM73); test: Z′-LYTE kinase inhibition assay, Alk; details: for % inhibition: average of 2 runs
From the text: as §1, §2, §3, §4, §5

[3] = target: Blk (Homo sapiens, UniProt P51451); test: Z′-LYTE kinase inhibition assay, Blk; details: for % inhibition: average of 2 runs
Blk, sequence (P51451 whole entry): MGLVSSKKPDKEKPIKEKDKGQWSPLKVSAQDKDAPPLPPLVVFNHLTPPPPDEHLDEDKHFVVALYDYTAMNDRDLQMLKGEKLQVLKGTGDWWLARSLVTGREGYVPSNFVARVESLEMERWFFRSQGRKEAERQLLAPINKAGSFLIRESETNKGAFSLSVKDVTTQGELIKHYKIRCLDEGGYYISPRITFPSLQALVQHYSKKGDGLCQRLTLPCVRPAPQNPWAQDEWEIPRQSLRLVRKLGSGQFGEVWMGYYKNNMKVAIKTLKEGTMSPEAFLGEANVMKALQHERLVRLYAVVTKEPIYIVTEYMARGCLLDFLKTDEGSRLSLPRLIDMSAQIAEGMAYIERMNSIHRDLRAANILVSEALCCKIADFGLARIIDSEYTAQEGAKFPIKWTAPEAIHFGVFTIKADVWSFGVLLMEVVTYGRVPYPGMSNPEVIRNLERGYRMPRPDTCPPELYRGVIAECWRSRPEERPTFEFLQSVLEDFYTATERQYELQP
From the text: as §1, §2, §3, §4, §5

[4] = target: BTK (Homo sapiens, UniProt Q06187); test: Z′-LYTE kinase inhibition assay, BTK; details: for % inhibition: average of 2 runs
BTK, sequence (Q06187 whole entry): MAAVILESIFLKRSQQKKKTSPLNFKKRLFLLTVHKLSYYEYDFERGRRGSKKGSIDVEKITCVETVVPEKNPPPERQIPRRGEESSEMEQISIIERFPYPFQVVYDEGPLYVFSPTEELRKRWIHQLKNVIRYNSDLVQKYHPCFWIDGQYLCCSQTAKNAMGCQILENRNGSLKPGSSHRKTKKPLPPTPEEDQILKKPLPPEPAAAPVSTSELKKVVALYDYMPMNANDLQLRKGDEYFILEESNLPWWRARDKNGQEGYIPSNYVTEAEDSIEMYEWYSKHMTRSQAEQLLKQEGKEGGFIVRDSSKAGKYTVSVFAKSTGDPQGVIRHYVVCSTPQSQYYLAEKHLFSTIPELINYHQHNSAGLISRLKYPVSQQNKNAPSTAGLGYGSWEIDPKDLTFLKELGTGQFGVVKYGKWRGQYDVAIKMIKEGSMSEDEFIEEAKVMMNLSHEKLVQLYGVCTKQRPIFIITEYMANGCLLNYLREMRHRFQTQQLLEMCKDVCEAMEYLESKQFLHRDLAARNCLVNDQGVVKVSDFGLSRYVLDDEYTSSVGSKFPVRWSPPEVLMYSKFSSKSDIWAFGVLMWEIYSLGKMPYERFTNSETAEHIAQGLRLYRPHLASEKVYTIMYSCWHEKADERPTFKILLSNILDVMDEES
From the text: as §1, §2, §3, §4, §5

[5] = target: CSK (Homo sapiens, UniProt P41240); test: Z′-LYTE kinase inhibition assay, CSK; details: for % inhibition: average of 2 runs
From the text: as §1, §2, §3, §4, §5

[6] = target: EGFR (Homo sapiens, UniProt P00533); test: Z′-LYTE kinase inhibition assay, EGFR; details: for % inhibition: average of 2 runs
From the text: as §1, §2, §3, §4, §5

[7] = target: Her-2 (Homo sapiens, UniProt P04626); test: Z′-LYTE kinase inhibition assay, Her-2; details: average of 2 runs
From the text: as §1, §2, §3, §4, §5

[8] = target: Fgr (Homo sapiens, UniProt P09769); test: Z′-LYTE kinase inhibition assay, Fgr; details: for % inhibition: average of 2 runs
From the text: as §1, §2, §3, §4, §5

[9] = target: Fyn (Homo sapiens, UniProt P06241); test: Z′-LYTE kinase inhibition assay, Fyn; details: for % inhibition: average of 2 runs
Fyn, sequence (P06241 whole entry): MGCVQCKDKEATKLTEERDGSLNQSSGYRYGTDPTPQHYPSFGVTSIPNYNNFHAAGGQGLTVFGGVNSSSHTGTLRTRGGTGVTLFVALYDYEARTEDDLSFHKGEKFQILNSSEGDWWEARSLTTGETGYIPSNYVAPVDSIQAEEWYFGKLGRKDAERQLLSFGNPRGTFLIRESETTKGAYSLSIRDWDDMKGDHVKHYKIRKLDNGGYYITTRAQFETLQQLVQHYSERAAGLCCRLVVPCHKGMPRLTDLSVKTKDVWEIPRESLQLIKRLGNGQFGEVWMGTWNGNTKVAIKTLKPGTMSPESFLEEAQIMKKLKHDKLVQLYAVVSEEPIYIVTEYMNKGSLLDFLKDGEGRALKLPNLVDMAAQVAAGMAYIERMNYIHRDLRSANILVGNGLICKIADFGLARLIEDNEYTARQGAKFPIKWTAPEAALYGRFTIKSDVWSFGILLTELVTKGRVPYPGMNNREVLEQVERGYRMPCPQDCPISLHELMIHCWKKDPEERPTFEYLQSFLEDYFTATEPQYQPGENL
From the text: as §1, §2, §3, §4, §5

[10] = target: Hck (Homo sapiens, UniProt P08631); test: Z′-LYTE kinase inhibition assay, Hck; details: for % inhibition: average of 2 runs
Hck, sequence (P08631 whole entry): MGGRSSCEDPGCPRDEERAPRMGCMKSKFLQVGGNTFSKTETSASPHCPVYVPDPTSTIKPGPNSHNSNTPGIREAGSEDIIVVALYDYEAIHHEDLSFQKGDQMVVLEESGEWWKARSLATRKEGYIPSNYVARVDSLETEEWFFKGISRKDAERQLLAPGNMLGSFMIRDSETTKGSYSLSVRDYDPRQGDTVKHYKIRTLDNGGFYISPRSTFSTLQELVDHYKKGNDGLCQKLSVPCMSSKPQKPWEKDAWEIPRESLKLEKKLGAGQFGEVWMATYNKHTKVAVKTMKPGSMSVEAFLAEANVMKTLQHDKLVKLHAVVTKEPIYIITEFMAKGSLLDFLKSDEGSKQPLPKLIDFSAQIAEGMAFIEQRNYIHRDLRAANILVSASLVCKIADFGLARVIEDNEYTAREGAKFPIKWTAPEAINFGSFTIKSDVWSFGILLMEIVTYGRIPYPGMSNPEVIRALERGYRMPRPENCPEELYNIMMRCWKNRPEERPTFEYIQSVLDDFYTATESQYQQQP
From the text: as §1, §2, §3, §4, §5

[11] = target: Kit (Homo sapiens, UniProt P10721); test: Z′-LYTE kinase inhibition assay, Kit; details: for % inhibition: average of 2 runs
From the text: as §1, §2, §3, §4, §5

[12] = target: Lck (Homo sapiens, UniProt P06239); test: Z′-LYTE kinase inhibition assay, Lck; details: for % inhibition: average of 2 runs
From the text: as §1, §2, §3, §4, §5

[13] = target: Lyn (Homo sapiens, UniProt P07948); test: Z′-LYTE kinase inhibition assay, Lyn; details: for % inhibition: average of 2 runs
Lyn, sequence (P07948 whole entry): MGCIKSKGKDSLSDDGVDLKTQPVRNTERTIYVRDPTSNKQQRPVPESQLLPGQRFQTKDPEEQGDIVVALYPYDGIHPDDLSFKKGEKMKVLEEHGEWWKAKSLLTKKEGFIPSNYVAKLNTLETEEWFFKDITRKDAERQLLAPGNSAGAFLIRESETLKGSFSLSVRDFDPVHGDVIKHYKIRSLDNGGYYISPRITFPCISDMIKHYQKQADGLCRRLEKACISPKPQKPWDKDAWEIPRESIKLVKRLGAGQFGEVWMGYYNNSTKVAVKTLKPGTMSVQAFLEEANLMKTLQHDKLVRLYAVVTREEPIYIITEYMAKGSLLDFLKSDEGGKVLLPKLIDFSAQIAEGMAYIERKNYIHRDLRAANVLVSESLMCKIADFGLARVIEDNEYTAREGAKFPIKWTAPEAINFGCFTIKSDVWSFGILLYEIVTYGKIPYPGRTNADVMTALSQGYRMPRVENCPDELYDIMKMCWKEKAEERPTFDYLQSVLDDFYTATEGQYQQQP
From the text: as §1, §2, §3, §4, §5

[14] = target: pdgfr-a (Homo sapiens, UniProt P16234); test: Z′-LYTE kinase inhibition assay, pdgfr-a; details: for % inhibition: average of 2 runs
From the text: as §1, §2, §3, §4, §5

[15] = target: pdgfr-b (Homo sapiens, UniProt P09619); test: Z′-LYTE kinase inhibition assay, pdgfr-b; details: for % inhibition: average of 2 runs
pdgfr-b, sequence (P09619 33-1106): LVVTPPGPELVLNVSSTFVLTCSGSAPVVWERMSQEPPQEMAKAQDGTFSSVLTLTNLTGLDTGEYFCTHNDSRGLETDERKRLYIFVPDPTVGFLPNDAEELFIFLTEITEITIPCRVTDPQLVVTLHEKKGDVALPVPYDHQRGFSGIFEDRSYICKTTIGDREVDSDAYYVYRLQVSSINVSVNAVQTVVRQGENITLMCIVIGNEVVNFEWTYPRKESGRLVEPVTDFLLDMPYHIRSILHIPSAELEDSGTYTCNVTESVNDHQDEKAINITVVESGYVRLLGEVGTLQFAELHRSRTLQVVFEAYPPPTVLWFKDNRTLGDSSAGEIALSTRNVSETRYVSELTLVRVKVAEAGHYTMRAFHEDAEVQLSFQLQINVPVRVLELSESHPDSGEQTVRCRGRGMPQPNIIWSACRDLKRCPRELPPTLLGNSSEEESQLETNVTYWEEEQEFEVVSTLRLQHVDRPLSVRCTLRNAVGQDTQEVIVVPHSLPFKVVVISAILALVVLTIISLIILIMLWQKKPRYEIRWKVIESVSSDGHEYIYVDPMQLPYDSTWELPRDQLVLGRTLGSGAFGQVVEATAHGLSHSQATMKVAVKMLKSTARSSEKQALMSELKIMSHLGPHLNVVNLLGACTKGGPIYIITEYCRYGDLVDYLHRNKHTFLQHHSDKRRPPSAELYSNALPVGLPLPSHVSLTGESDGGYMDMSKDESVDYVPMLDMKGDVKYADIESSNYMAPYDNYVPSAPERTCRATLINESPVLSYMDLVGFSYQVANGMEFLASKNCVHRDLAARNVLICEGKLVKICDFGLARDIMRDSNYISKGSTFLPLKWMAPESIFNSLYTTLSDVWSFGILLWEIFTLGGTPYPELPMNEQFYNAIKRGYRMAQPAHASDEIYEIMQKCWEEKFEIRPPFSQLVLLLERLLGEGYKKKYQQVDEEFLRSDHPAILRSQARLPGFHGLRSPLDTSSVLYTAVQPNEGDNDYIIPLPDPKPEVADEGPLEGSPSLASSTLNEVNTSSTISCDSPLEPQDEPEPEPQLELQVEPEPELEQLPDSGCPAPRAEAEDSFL
From the text: as §1, §2, §3, §4, §5

[16] = target: Ret (Homo sapiens, UniProt P07949); test: Z′-LYTE kinase inhibition assay, Ret; details: for % inhibition: average of 2 runs
From the text: as §1, §2, §3, §4, §5

[17] = target: Yes (Homo sapiens, UniProt P07947); test: Z′-LYTE kinase inhibition assay, Yes; details: for % inhibition: average of 2 runs
From the text: as §1, §2, §3, §4, §5

[18] = target: Src kinase (Homo sapiens, UniProt P12931); test: Z′-LYTE kinase inhibition assay, Src
From the text: Based on the observed stereochemical stabilities, we chose 1f, 2e, and 2f for further study and obtained inhibition data against Src kinase from Life Technologies' Z′-LYTE™ kinase assay (Scheme 3).
as §1, §2, §3, §4, §5

[19] = tested on: panel of 18 tyrosine kinases; test: Kinase inhibitor profiling across a panel of tyrosine kinases (selectivity); details: for S(40%): number of kinases inhibited greater than 40% divided by number of kinases tested (including Src)
Method: In order to probe the effect of atropisomeric conformation on kinase selectivity we subjected 1f, 2e, and 2f to kinase inhibitor profiling across a panel of tyrosine kinases at 1000 nM and 5000 nM (data for 2e shown in Scheme 4 below).
To analyze each analog's selectivity across the panel we turned to selectivity scores (Davis et al., Nat. Biotechnol. 2011, 29, 1046-51), simply the number of kinases inhibited above a certain threshold divided by the number of kinases evaluated. […] For example at 1000 nM 2e-(R) yielded an S(40%) of 0.11 while 2e-(S) gave an S(40%) of 0.16. […] Differences in selectivity between 2e-(R) and 2e-(S) at 5000 nM (4.5 times the IC50 of 2e-(S) toward Src) and for 5 at 1000 nM (6.25 times the IC50 of 5 toward Src) can be viewed graphically across tyrosine kinases (FIG. 3). Importantly, similar trends were also observed across each of the atropisomeric series tested.
as §1, §2, §3, §4, §5

[20] = % inhibition 2e-(S)/% inhibition 2e-(R) at 5000 nM

Abl, sequence (P00519 whole entry): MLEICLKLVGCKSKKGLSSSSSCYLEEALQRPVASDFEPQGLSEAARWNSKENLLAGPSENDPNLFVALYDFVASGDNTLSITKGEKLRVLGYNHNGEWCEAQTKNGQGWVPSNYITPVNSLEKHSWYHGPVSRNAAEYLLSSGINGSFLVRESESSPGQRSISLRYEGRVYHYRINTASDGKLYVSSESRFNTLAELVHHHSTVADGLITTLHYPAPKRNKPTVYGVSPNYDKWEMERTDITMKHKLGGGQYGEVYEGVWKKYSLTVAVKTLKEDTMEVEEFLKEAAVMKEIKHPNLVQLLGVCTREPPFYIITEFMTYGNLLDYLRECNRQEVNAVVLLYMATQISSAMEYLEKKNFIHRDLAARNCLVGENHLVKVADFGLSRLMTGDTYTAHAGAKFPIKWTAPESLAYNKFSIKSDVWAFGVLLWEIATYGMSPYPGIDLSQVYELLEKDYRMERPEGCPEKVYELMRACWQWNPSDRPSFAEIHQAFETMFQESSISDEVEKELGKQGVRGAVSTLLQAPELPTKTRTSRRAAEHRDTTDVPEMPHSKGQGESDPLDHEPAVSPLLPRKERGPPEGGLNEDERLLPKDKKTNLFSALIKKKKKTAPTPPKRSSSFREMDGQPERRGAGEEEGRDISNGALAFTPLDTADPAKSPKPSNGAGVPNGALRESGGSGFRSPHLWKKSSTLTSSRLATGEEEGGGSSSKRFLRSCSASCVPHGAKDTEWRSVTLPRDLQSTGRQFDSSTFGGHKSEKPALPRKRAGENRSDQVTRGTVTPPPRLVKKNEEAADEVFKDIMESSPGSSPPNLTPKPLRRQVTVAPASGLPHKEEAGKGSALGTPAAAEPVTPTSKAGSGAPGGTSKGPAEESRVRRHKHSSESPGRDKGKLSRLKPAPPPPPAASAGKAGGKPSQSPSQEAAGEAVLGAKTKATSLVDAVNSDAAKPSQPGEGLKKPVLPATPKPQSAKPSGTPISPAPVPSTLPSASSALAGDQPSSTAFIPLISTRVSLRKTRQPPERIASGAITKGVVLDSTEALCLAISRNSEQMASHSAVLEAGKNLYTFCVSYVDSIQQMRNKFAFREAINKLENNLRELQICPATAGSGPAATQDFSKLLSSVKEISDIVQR

Which results are given for `COc1ccc(Cl)c(-c2c(Cl)n(C(C)(C)C)c3ncnc(N)c23)c1` (single isomer, unassigned) [2e-(S), 7-(tert-butyl)-6-chloro-5-(2-chloro-5-methoxyphenyl)-7H-pyrrolo[2,3d]pyrimidin-4-amine]?
IC50 of Kinase/IC50 of Yes ([1]; Abl relative to Yes): 1.96; % inhibition ([1]; Abl, 1000 nM, 1 µM): 36%; % inhibition ([1]; Abl, 5000 nM): 67%; % inhibition ([1]; Abl, 5000 nM, 5 µM): 67%; SIR (5000 nM) ([1]; Abl, % inhibition 2e-(S)/% inhibition 2e-(R) at 5000 nM): 2.57; IC50 ([1]; Abl, error is standard deviation): 1.43 µM; % inhibition ([2]; 1000 nM, 1 µM): 5%; % inhibition ([2]; 5000 nM, 5 µM): 7%; SIR (5000 nM) [2, 20]: 0.38; % inhibition ([3]; 1000 nM, 1 µM): 21%; % inhibition ([3]; 5000 nM, 5 µM): 47%; SIR (5000 nM) [3, 20]: 1.46; % inhibition ([4]; 1000 nM, 1 µM): 18%; % inhibition ([4]; 5000 nM, 5 µM): 54%; SIR (5000 nM) [4, 20]: 1.86; % inhibition ([5]; 1000 nM, 1 µM): 19%; % inhibition ([5]; 5000 nM, 5 µM): 45%; SIR (5000 nM) [5, 20]: 1.28; IC50 of Kinase/IC50 of Yes ([6]; EGFR relative to Yes): >10.0; % inhibition ([6]; EGFR, 1000 nM, 1 µM): 10%; % inhibition ([6]; EGFR, 5000 nM, 5 µM): 21%; IC50 ([6]; EGFR, error is standard deviation): > 10 µM; % inhibition ([7]; 1000 nM, 1 µM): −7%; % inhibition ([7]; 5000 nM): 0%; % inhibition ([8]; 1000 nM, 1 µM): 58%; % inhibition ([8]; 5000 nM, 5 µM): 81%; SIR (5000 nM) [8, 20]: 1.05; % inhibition ([9]; 1000 nM, 1 µM): 26%; % inhibition ([9]; 5000 nM, 5 µM): 56%; SIR (5000 nM) [9, 20]: 1.27; % inhibition ([10]; 1000 nM, 1 µM): 32%; % inhibition ([10]; 5000 nM, 5 µM): 50%; SIR (5000 nM) [10, 20]: 1.25; % inhibition ([11]; 1000 nM, 1 µM): 18%; % inhibition ([11]; 5000 nM, 5 µM): 36%; SIR (5000 nM) [11, 20]: 1.38; % inhibition ([12]; 1000 nM, 1 µM): 26%; % inhibition ([12]; 5000 nM, 5 µM): 54%; SIR (5000 nM) [12, 20]: 1.05; % inhibition ([13]; 1000 nM, 1 µM): 36%; % inhibition ([13]; 5000 nM, 5 µM): 75%; SIR (5000 nM) [13, 20]: 1.31; % inhibition ([14]; 1000 nM): 3%; % inhibition ([14]; 5000 nM, 5 µM): 13%; SIR (5000 nM) [14, 20]: 1.63; % inhibition ([15]; 1000 nM, 1 µM): 13%; % inhibition ([15]; 5000 nM, 5 µM): 16%; SIR (5000 nM) [15, 20]: 1.23; IC50 of Kinase/IC50 of Yes ([16]; Ret relative to Yes): 10.53; % inhibition ([16]; Ret, 1000 nM, 1 µM): 14%; % inhibition ([16]; Ret, 5000 nM): 32%; % inhibition ([16]; Ret, 5000 nM, 5 µM): 32%; SIR (5000 nM) ([16]; Ret, % inhibition 2e-(S)/% inhibition 2e-(R) at 5000 nM): 0.44; IC50 ([16]; Ret, error is standard deviation): 7.66 µM; IC50 of Kinase/IC50 of Yes ([17]; Yes relative to Yes): 1; % inhibition ([17]; Yes, 1000 nM): 53%; % inhibition ([17]; Yes, 5000 nM, 5 µM): 77%; SIR (5000 nM) ([17]; Yes, % inhibition 2e-(S)/% inhibition 2e-(R) at 5000 nM): 0.97; IC50 ([17]; Yes, error is standard deviation): 0.727 µM; IC50 of Kinase/IC50 of Yes ([18]; Src relative to Yes): 1.64; IC50 ([18]; Src, error is standard deviation): 1.19 µM; S(40%) ([19]; 1000 nM): 0.16; S(40%) ([19]; 5000 nM): 0.61; increase of 5's inherent selectivity ([19]; less potent towards Ret): ~8 fold
